Results published in patent publication US20040248992A1, “Method and composition for inhibiting arteriosclerosis” (KANEKA CORPORATION, priority 2000, published 2004).

What was measured:
[1] = tested on: plasma low-density lipoprotein (LDL); assay: Antioxidant activity of plasma LDL (lag time of copper-induced conjugated diene formation) in hamsters on high-fat diet; format: in vivo; conditions: 1% (w/v) solution in olive oil plus pravastatin 10 mg/kg orally for 4 consecutive days, LDL 40 μg protein/mL, copper ion 1 μM, 234 nm, n = 3
Method: Hamsters were fed on a high-fat diet containing 1.5% of cholesterol for 1 week and, then, dosed orally with a 1% (w/v) solution of either the oxidized or the reduced coenzyme Q10 in olive oil and 10 mg of pravastatin per kg body weight for 4 consecutive days. After overnight fasting, the plasma was collected, the plasma LDL was separated by density-gradient centrifugation method, and as a marker of LDL antioxidant activity, the lag time was measured. The lag time is defined herein as the value found by adding a copper ion (1 μM) to LDL (40 μg protein/mL) and monitoring at 234 nm the time course of conjugated diene structure of oxidized fat/fatty acid resulting from oxidation to determine the time interval until a sharp increase had begun in the conjugated diene concentration.

[2] = Plasma level of the reduced coenzyme Q10 in hamsters on high-fat diet (HPLC); format: in vivo
Method: Hamsters were fed on a high-fat diet containing 1.5% of cholesterol for one week and, then, a 1% (w/v) solution of either the oxidized or the reduced coenzyme Q10 in olive oil was administered orally for 4 consecutive days. After overnight fasting, the plasma was collected and the reduced coenzyme Q10 in the plasma was assayed by HPLC.

Row | Gain in reduced coenzyme Q10 in plasma ([2]; hamster, in vivo, po, 4 days) | Gain in reduced coenzyme Q10 in plasma, relative to oxidized coenzyme Q10 group (100%) ([2]; hamster, in vivo, po, 4 days) | SMILES | Lag time (LDL antioxidant activity) [1] | Gain in reduced coenzyme Q10 in plasma ([2]; hamsters on high-fat diet (1.5% cholesterol, 1 week), 1% (w/v) solution in olive oil orally for 4 consecutive days, plasma after overnight fasting, n = 3) | Gain in reduced coenzyme Q10 in plasma, relative to oxidized coenzyme Q10 group (100%) ([2]; hamsters on high-fat diet, 1% (w/v) solution in olive oil orally for 4 consecutive days, n = 3)
1 | 10.1 ng/mL | 100% | COC1=C(OC)C(=O)C(C/C=C(\C)CC/C=C(\C)CC/C=C(\C)CC/C=C(\C)CC/C=C(\C)CC/C=C(\C)CC/C=C(\C)CC/C=C(\C)CC/C=C(\C)CCC=C(C)C)=C(C)C1=O [oxidized coenzyme Q10] | 25 ± 8 min |  | 
2 |  |  | COc1c(O)c(C)c(C/C=C(\C)CC/C=C(\C)CC/C=C(\C)CC/C=C(\C)CC/C=C(\C)CC/C=C(\C)CC/C=C(\C)CC/C=C(\C)CC/C=C(\C)CCC=C(C)C)c(O)c1OC [reduced coenzyme Q10] | 44 ± 9 min | 14.4 ng/mL | 143%
